These results are taken from patent US20220307053A1, “REGULATABLE EXPRESSION SYSTEMS” (Novartis AG, priority 2019, published 2022).

“Also recorded” adds a separate entry of the source.

In data set [1] the test system is SNX7 minigene exon B inclusion in primary rat neurons. The data set is described as follows: RNA splicing analysis by qPCR in pJSNX-GFP transfected primary rat neurons. It counts as cell-based. The method, then: Primary rat neurons were prepared from dissected rat embryo cortices digested with papain and cultured in complete Neurobasal media in 24-well poly-D-Lysine plates (Corning) at density 150,000 cells/well for 7 days. Half of the media was replaced with fresh media day before transfection. Each well was transfected with 2 ug of pJSNX-GFP plasmid DNA using Lipofectamine2000 (Invitrogen) according to manufacturer's protocol, except cells were washed three times with optiMEM before adding DNA-liposomes cocktails. Transfection media was replaced with conditioned media containing 50% fresh complete Neurobasal media 4 hours later. Next day, 1 mM stock of LMI070 in DMSO was diluted in 1/1,000-1/500,000 in DMEM to achieve concentrations 2 nm-1 uM when added to the cells. Control cells received 0.1% DMSO. GFP expression was evaluated 6 days post transfection using fluorescent microscope. […] For RNA splicing analysis, total RNA was extracted from cells using Trizol (Invitrogen) according to manufacturer's protocol. cDNA was synthesized using Superscript III 1st strand supermix for qRT-PCR (Invitrogen). Inclusion of exon B was evaluated using qPCR by measuring amounts of exonB-exonC amplified by […] […] Amounts of constitutively spliced RNA (i.e. exonA-exonC) was measured using […] […]
On the technique in general: Real-time PCR tracks product formation cycle by cycle.

Data set [2] concerns pSyn-snx7-PGRN (SNX7 switch) in primary rat neurons. The data set is described as follows: hPGRN expression by TR-FRET assay in pSyn-snx7-PGRN transfected primary rat neurons. The format is cell-based. The settings on record: 100 nm LMI070, 6 days post transfection. The method, then:
(§1) Primary rat neurons were prepared from dissected rat embryo cortices digested with papain and cultured in complete Neurobasal media in 24-well poly-D-Lysine plates (Corning) at density 150,000 cells/well for 7 days. Half of the media was replaced with fresh media day before transfection. […] Transfection media was replaced with conditioned media containing 50% fresh complete Neurobasal media 4 hours later. Next day, 1 mM stock of LMI070 in DMSO was diluted in 1/10,000 in DMEM to achieve concentrations 100 nm when added to the cells. Control cells received 0.01% DMSO. hPGRN expression was measured 6 days post transfection using TR-FRET assay. In pSyn-snx7-PGRN transfected cells, expression of hPGRN was induced by LMI070 more than 30 times comparing to DMSO-treated control (FIG. 6B). For RNA splicing analysis, total RNA was extracted from cells using Trizol (Invitrogen) according to manufacturer's protocol. cDNA was synthesized using Superscript III 1st strand supermix for qRT-PCR (Invitrogen). Inclusion of exon B was evaluated using qPCR by measuring amounts of exonB-exonC junction amplified by […] (SEQ ID NO: 103) and GCGGTTGCGAGGTTTATCT (SEQ ID NO: 104) primers pair as compared to total transgene mRNA amplified by primers specific to exon C, GCGGTTGCGAGGTTTATCT (SEQ ID NO: 104) and […] (SEQ ID NO: 105). […] Amounts of constitutively spliced RNA (i.e. exonA-exonC) was measured using […] […]

Data set [3] concerns SNX7 minigene exon B inclusion in HEK293 cells. The data set is described as follows: RNA splicing analysis by qPCR in pJSNX-GFP transfected HEK293 cells. The format is cell-based, human. The method, then: (§2) HEK293 cells were maintained in complete DMEM media and seeded in 24-well plate at 100,000 cells per well densite day before transfection. Each well was transfected with 2 ug of pJSNX-GFP plasmid DNA using Lipofectamine2000 (Invitrogen) according to manufacturer's protocol. Transfection media was replaced with complete DMEM 4 hours later. Initial 1 mM stock of LMI070 in DMSO was diluted in 1/1,000-1/500,000 in DMEM to achieve concentrations 2 nm-1 uM when added to the cells in 24 hours later. Control cells received 0.1% DMSO. GFP expression was evaluated 48 hours post transfection using fluorescent microscope. […] For quantitative analysis of GFP expression, cells were trypsinized and analyzed by FACS using SONY SH-800 flow cytometer. Mean fluorescence intensity was used for relative measurement of GFP expression. […] For RNA splicing analysis, total RNA was extracted from cells using Trizol (Invitrogen) according to manufacturer's protocol. cDNA was synthesized using Superscript III 1st strand supermix for qRT-PCR (Invitrogen). Inclusion of exon B was evaluated using qPCR by measuring amounts of exonB-exonC amplified by […] […] Amounts of constitutively spliced RNA (i.e. exonA-exonC) was measured using […] […]

In data set [4] the test system is ssAAV9 hPGRN with SNX7 switch (version 1) in mouse brain. As to the kind of experiment: Time course of hPGRN expression in mouse brain after oral LMI070 (ssAAV9 SNX7 switch version 1, TR-FRET). It counts as in vivo. Conditions: C57Bl/6 mice. As for the experimental part:
ssAAV9 viral vector encoding hPGRN under control of synapsin promoter with SNX7 switch (version 1) was produced in HEK293 cells and purified by iodixanol. 2e10vg of AAV vector in 2 uL was injected ICV in C57Bl/6 neonatal mice at P0. At 4 weeks of age, 30 mg/kg of LMI070 or vehicle control was administered orally through gavage. 4-6 mice per group were taken down at specified time points (FIG. 7A). After transcardial perfusion with PBS posterior half of the left hemisphere was homogenyzed in Precellys tube. TR-FRET assay was used for measurement of human PGRN expressed from AAV vector. […] The transgenic protein expression returned to untreated levels after 4 days post LMI070 administration (FIG. 7B).
(In general: TR-FRET usually uses a lanthanide donor and a delayed reading to cut background.)

For data set [5] the test system is unchanged. As to the kind of experiment: Dose response of hPGRN expression in mouse brain after oral LMI070 (ssAAV9 SNX7 switch version 1, TR-FRET). It counts as in vivo, FVB mice. The method, then: ssAAV9 viral vector encoding hPGRN under control of synapsin promoter with SNX7 switch (version 1) was produced in HEK293 cells and purified by iodixanol. 2e10vg of AAV vector in 2 uL was injected ICV in FVB neonatal mice at P0. At 4 weeks of age, 3, 10 or 30 mg/kg of LMI070 or vehicle control was administered orally through gavage. 6-7 mice per group were taken down at specified time points (FIG. 8A). After transcardial perfusion with PBS posterior half of the left hemisphere was homogenyzed in Precellys tube. TR-FRET assay was used for measurement of human PGRN expressed from AAV vector. Sample of human cortex was used as a control for physiological PGRN levels (˜200 pg/mg).

Data set [6] deals with SNX7 minigene exon B inclusion in primary rat neurons. The data set is described as follows: RNA splicing analysis by qPCR in pSyn-snx7-PGRN transfected primary rat neurons. It counts as cell-based. Conditions: 100 nm LMI070. As for the experimental part:
as §1

For data set [7], the system named is pJSNX-GFP (SNX7 minigene ON-switch) in HEK293 cells. The data set is described as follows: GFP expression from SNX7 minigene ON-switch in HEK293 cells (fluorescent microscope, FACS). The format is cell-based, human. The settings on record: LMI070 2 nm-1 uM, 48 hours post transfection, vs DMSO. As for the experimental part: as §2
Data set [8] concerns SNX7 minigene switch in HEK293 cells. The data set is described as follows: Comparison of SNX7 switch version 1 and version 2 in HEK293 cells in response to LMI070. Conditions: HEK293, plasmid DL182 (version 2) vs DL180 (version 1), LMI070 100 nm-1 uM, 48 hours post transfection. The format is cell-based, human. The method, then: The modified SNX7 minigene (version 2) was inserted into a scAAV vector using molecular cloning techniques. The sequence of the vector comprising the modified SNX7 minigene (version 2) is shown in SEQ ID NO: 95. HEK293 cells were maintained in complete DMEM media and seeded in 24-well plate at 100,000 cells per well densite day before transfection. Each well was transfected with 2 ug of plasmid DNA DL180 containing SNX7 switch version 1 or plasmid DL182 containing SNX7 version 2 using Lipofectamine2000 (Invitrogen) according to manufacturer's protocol. Transfection media was replaced with complete DMEM 4 hours later. Initial 1 mM stock of LMI070 in DMSO was diluted in 1/1,000-1/500,000 in DMEM to achieve concentrations 100 nm-1 uM when added to the cells in 24 hours later. Control cells received 0.1% DMSO. GFP expression was evaluated 48 hours post transfection using fluorescent microscope.

With `CC1(C)CC(Oc2ccc(-c3ccc(-c4cn[nH]c4)cc3O)nn2)CC(C)(C)N1` [LMI070, 5-(1H-Pyrazol-4-yl)-2-(6-((2,2,6,6-tetramethylpiperidin-4-yl)oxy)pyridazin-3-yl)phenol], the figures for the “Inclusion of exon B, upregulated as compared to DMSO-treated cells” value in data set [1] (31 nM LMI070) and in data set [6] were “more than 100 times” and “more than 150 times”, respectively. Also, the “exonA-exonC splicing, lower as compared to control DMSO-treated cells” value was 30 times in data set [1] (500 nM LMI070) and 60 times in data set [3] (HEK293, 1 uM LMI070). Moreover, the “expression of hPGRN induced, comparing to DMSO-treated control” value in data set [2] is on record as “more than 30 times”. Further, the “Inclusion of exon B (exonB-exonC vs total transgene mRNA), upregulated as compared to DMSO-treated cells” value in data set [3] (HEK293, 125 nM LMI070) turned out to be 75 times. For the same molecule, in data set [4] (30 mg/kg LMI070 orally), the “time after which transgenic protein expression returned to untreated levels” value is 4 days. Further, the “hPGRN expression in the brain post LMI070 administration (time course)” value in data set [4] (ssAAV9 ICV at P0, 30 mg/kg LMI070 orally at 4 weeks) was “rapid and transient induction of hPGRN expression in the brain after 24 hours post LMI070 administration; also recorded: switches on transgene expression in mouse brain in time-dependent manner”. In data set [5] (FVB mice, 3, 10 or 30 mg/kg LMI070 orally), the “transgene expression in brain vs LMI070 dose” value is recorded as “dose response; also recorded: switches on transgene expression in mouse brain in dose-dependent manner”. For the same molecule, the “accumulation of transgenic hPGRN in the brain (time course)” value in data set [5] (FVB mice, ssAAV9 ICV at P0, 3, 10 or 30 mg/kg LMI070 orally at 4 weeks) is “rapid (12 hours post LMI070 administration) accumulation of transgenic hPGRN in the brain, which starts to decline at 24 hour point”. In addition, the “exonA-exonC splicing, lower as compared to DMSO-treated cells” value in data set [6] came out at 10 times. Further, in data set [7], the “GFP expression (mean fluorescence intensity)” value was “dose-dependent increase in GFP expression”.

B1: modified SNX7 minigene (version 2): SNX7 minigene modified to reduce size and eliminate peptide expression in the absence of LMI070; tested in plasmid DL182 (nucleic acid)
DNA: GAAGAAGAAGATATCAAGTTAGCATTTACAGATTTGGCTGAGGAGAAGAACAGGTAATTAGTGTTGTTTGATATTGCTTCATTTTAAAGTTATTTGCTCATTTAGCATTTGATATTGCTTTCTATTGATTGTCCTAACTACTCCTCTTTCCTCTCCCTTCTCCATTTTTGAAGAGTTTGCAAAGGAAGGAAAGGAGCAGAGACTTGATTGAGCAGAAAATCATTTCAGGGCCTGTTCTCTATTGTCCTTGCTATCCTGTCTTCTGTAGCTATCTGAAACCATCAACAAAGGAGCACACCATGGCATCAGCAAAAGAGTAACAACATCTTTTTTTAAGTTCATTTTGTTTTTCAGTTGATTGTATTTCAATTTTTTTACAGCTGACTTTTCTCAGAGAAGTTTTTTTTTTATTGTAAACATACTTTTTCTAGAAAGTATATTTTAAAATAACATCTTTAACCTTATCTCTGGCTGAATTATTGAATATTTGAAATTATTACATTAACAAAATTTTGTCTTACAGCAGTGGTCCCCAACCTTCTTAGCAGTAGCATCCCTCATTAAGAATTAAAATTTGTAGAAATTGACAAGGATTCTGACAAGCTGTTGGGAGAGAAGAATAGAGCAGATTGCAGTAGGAACAGTTGTGTTAGAATTTATTAATCCTTTAACACTGAAAGTAAACTATTGTTGATTGCCTCTTGGTGTGTTTCCATTATTCAGTGCTCTTGCTAAGTGGGAGTCATTCCTTACATCAACCACCAACCTTCACTTGGAAGAAGCTAGCGAAGATAAACCT
Consider B1, for which, in data set [8], the “sensitivity of minigene switch in response to LMI070 (GFP expression)” value is “more sensitive than the previous version”.
